According to patent publication US6090821A, “Substituted quinolin-2 (1H)-ones useful as HIV reverse transcriptase inhibitors” (E. I. DuPont de Nemours and Company, priority 1999, dated 2000):
Values after ≈ are worked out from the molar mass of the structure shown.

System: HIV-1 (RF)
Assay: HIV RNA assay: microplate based compound evaluation in HIV-1 infected MT-2 cells
Format: cell-based
Conditions: Human immunodeficiency virus 1, MT2, 72 h; HIV-1 (RF) infected MT-2 cells, 3 days at 37° C.; virus dilutions selected to give this ddC value (standardization of inoculum); read-out: IC90 value (concentration of compound required to reduce the HIV RNA level by 90%)
Method: Plasmid pDAB 72 containing both gag and pol sequences of BH10 (bp 113-1816) cloned into PTZ 19R was prepared according to Erickson-Viitanen et al. AIDS Research and Human Retroviruses 1989, 5, 577. The plasmid was linearized with Bam HI prior to the generation of in vitro RNA transcripts using the Riboprobe Gemini system II kit (Promega) with T7 RNA polymerase. Synthesized RNA was purified by treatment with RNase free DNAse (Promega), phenol-chloroform extraction, and ethanol precipitation. RNA transcripts were dissolved in water, and stored at -70° C. The concentration of RNA was determined from the A260.
Biotinylated capture probes were purified by HPLC after synthesis on an Applied Biosystems (Foster City, Calif.) DNA synthesizer by addition of biotin to the 5' terminal end of the oligonucleotide, using the biotin-phosphoramidite reagent of Cocuzza, Tet. Lett. 1989, 30, 6287. […]
MT-2 and MT-4 cells were maintained in RPMI 1640 supplemented with 5% fetal calf serum (FCS) for MT-2 cells or 10% FCS for MT-4 cells, 2 mM L-glutamine and 50 μg/mL gentamycin, all from Gibco. […] Infectious titers of HIV-1(RF) stocks were 1-3×10^7 PFU (plaque forming units)/mL as measured by plaque assay on MT-2 cells (see below). […]

- IC90: 0.2 µg/mL (≈ 0.947 µM)
Structure (SMILES): Nc1ccn([C@H]2CC[C@@H](CO)O2)c(=O)n1 [ddC, 2',3'-dideoxycytidine]
